Reference: patent publication US20160008490A1, “METAL CHELATE COMPOUNDS FOR BINDING TO THE PLATELET SPECIFIC GLYCOPROTEIN IIB/IIIA” (BAYER PHARMA AKTIENGESELLSCHAFT, priority 2013, published 2016)

Legend:
[1] = Relaxivity measurements at 1.41 T in water and plasma; type: physicochemical; conditions: relaxivity normalized to Gd, 37° C.
Description: Relaxivity measurements at 1.41 T were performed using a MiniSpec mq60 spectrometer (Bruker Analytik, Karlsruhe) operating at a resonance frequency of 60 MHz and a temperature of 37° C. The T1 relaxation times were determined using the standard inversion recovery method. The T2 measurements were done by using the Carr-Purcell-Meiboom-Gill (CPMG) pulse sequence. All measurements were done at concentrations between 0.05 mM and 1 mM of Gd in water and plasma.
The relaxivities ri (where i=1, 2) were calculated on the basis of the measured relaxation rates Ri in water and plasma:
where Ri(0) represent the relaxation rate of the respective solvent and CGd the concentration of the compound normalized to the Gadolium.

[2] = molecular target: T1, human GP IIb/IIIa receptor (Homo sapiens, UniProt P05106+P08514); experiment: GPIIb/IIIa affinity assay (displacement of tritiated reference compound from immobilized receptor); type: binding; conditions: purified human GPIIb/IIIa, 60 nM 3H-labeled reference compound, 1 hour at room temperature
T1 construct: human GPIIb/IIIa purified from human platelets was immobilized on a 96-well solid plate; purchased Enzyme Research Laboratories Inc. (South Bend, Ind.); host or cells: human platelets (natural source, detergent-solubilised)
T1 sequence (P08514 32-887 limits assumed): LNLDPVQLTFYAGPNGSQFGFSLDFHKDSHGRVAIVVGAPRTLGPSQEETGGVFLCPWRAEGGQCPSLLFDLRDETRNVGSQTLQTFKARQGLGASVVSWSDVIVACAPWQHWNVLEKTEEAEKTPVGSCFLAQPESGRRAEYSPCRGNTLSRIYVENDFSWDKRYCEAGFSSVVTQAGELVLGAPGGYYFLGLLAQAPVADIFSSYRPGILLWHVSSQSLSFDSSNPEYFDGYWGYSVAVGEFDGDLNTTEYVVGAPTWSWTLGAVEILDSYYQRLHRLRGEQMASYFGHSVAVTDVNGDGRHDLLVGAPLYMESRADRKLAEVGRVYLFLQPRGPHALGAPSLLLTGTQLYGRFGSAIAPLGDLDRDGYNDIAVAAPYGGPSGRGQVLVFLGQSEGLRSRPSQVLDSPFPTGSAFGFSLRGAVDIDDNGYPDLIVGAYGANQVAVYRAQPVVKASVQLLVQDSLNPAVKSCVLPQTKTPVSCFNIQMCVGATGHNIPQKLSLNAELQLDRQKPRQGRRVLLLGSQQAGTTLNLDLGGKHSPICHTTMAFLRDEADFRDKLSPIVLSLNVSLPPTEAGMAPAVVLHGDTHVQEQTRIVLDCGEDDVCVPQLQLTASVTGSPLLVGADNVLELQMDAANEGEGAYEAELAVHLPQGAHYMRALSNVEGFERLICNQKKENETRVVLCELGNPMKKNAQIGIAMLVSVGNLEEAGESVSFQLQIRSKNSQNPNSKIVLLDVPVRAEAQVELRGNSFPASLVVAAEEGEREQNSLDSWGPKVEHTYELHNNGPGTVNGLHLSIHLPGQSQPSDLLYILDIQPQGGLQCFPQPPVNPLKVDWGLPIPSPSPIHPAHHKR
T1 sequence (P08514 891-1039 partner limits assumed): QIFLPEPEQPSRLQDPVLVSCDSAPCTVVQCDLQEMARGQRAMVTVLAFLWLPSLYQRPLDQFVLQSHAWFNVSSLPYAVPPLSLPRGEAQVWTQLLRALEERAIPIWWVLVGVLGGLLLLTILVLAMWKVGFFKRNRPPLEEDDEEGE
T1 sequence (P05106 27-788): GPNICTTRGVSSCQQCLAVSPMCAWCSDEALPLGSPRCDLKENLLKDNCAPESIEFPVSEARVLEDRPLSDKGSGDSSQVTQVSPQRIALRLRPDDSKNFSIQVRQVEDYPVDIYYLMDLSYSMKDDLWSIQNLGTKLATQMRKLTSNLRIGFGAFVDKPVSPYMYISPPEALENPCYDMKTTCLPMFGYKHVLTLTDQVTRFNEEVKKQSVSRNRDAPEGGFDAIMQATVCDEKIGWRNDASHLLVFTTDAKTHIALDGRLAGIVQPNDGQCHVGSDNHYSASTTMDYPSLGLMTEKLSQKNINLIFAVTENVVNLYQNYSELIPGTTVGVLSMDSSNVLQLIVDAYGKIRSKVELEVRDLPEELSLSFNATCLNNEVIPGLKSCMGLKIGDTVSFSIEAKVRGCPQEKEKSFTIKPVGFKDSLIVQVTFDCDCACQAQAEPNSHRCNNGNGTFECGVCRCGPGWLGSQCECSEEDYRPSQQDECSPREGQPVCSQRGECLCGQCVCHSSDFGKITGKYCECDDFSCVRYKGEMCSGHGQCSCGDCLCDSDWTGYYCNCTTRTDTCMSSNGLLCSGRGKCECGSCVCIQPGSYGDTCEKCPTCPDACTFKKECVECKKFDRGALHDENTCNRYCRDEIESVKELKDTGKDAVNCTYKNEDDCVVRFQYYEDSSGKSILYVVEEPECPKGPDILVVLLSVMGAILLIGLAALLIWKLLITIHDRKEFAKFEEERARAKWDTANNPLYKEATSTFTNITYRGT
Description: Affinity assay: In the first step human GPIIb/IIIa purified from human platelets was immobilized on a 96-well solid plate. After 48 hours the plates were washed and the unspecific binding sites were blocked with Roti®-Block. 2. In the next step, the plates were simultaneously incubated with a tritium labeled known GPIIb/IIIa binder (^3H) mixed with increasing concentrations of the novel compounds (inhibitor). The higher the affinity of the inhibitor, the lower the bound fraction of the tritiated known GPIIb/IIIa binder (^3H) was. The fraction of tritiated compound (^3H), which is not displaced by inhibitor, was measured in a microplate scintillation counter.
Purified human glycoprotein IIb/IIIa (20 mM Tris-HCl, 0.1 M NaCl, 0.1% Triton X-100, 1 mM CaCl2, 0.05% NaN3, 50% Glycerol, pH 7.4) was purchased from Enzyme Research Laboratories Inc. (South Bend, Ind.). The GPIIb/IIIa receptor was diluted in phosphate-buffered saline (Dulbecco's Phosphate Buffered Saline (D-PBS (+)) with calcium and magnesium, GIBCO®, Invitrogen) with 0.01% bovine serum albumin (albumin from bovine serum—lyophilized powder, 96%, Sigma).
The GPIIb/IIIa receptor was immobilized 48 hours at least (100 μL per well, 48 to maximum 96 hours) on a 96-well solid plate (Immuno Plate MaxiSorp™, Nunc, Roskilde, Denmark) at 277 K to 280 K and at a concentration of 0.1 μg per well to 1 μg per well. As negative control one row of the plate (n=8) was incubated just with 2% bovine serum albumin (200 μL per well, albumin from bovine serum—lyophilized powder, ≧96%, Sigma, diluted in D-PBS (+)).
After washing three times with the wash buffer (230 μL per well, Dulbecco's Phosphate Buffered Saline (D-PBS (−)) contains no calcium or magnesium, GIBCO®, Invitrogen) residual exposed plastic and unspecific binding sites were blocked by incubating the plate with a special blocking solution (200 μL per well, Roti®-Block, Car Roth GmbH Co KG, Karlsruhe) containing 2% bovine serum albumin (Albumin from bovine serum—lyophilized powder, ≧96%, Sigma) 1 hour at room temperature.
After washing three times with the wash buffer 50 μL of tritiated reference compound (60 nM, ^3H-labeled compound) and 50 μL of novel compound (inhibitor) were simultaneously added to each well and incubated for 1 hour at room temperature. Several concentrations of each novel inhibitor (0.1, 1, 2, 5, 10, 20 50, 100, 200, 500, 1000, 2000, 5000, 10000 and 20000 nM) were investigated. At each concentration of inhibitor a fourfold determination was performed.
The maximum value of tritiated reference compound was determined without addition of inhibitor (n=8). To exclude unspecific binding of ^3H— reference compound wells without glycoprotein receptors were used as negative controls (n=12, identically treated just without GPIIb/IIIa receptors).
After one hour the plate was washed three times with phosphate-buffered saline (200 μL per well, Dulbecco's Phosphate Buffered Saline (D-PBS (+)), GIBCO®, Invitrogen). Following 140 μL of liquid scintillation cocktail (MicroScint™ 40 aqueous, Perkin Elmer) was added to each well. After 15 min at room temperature the plates were measured at the microplate scintillation counter (TopCount NXT v2.13, Perkin Elmer, Packard Instrument Company).
In the first step human glycoprotein IIb/IIIa, which is purified from human platelets, was immobilized on a 96-well solid plate. After 48 hours at least the plates were washed and the unspecific binding sites were blocked with Roti®-Block. In the next step, the plates were simultaneously incubated with a tritium labeled reference compound and the novel small molecule compound (inhibitor). The higher the affinity of the inhibitor, the smaller is the bound fraction of reference compound. The fraction of tritiated reference compound, which is not displaced by inhibitor, was measured at a microplate scintillation counter. The higher the affinity of the inhibitor, the smaller is the bound fraction of tritium-labeled reference compound. […]

[3] = test system: human activated platelets; experiment: Binding of investigated compounds to human activated platelets (ICP-MS of Gd in pellet and supernatant); type: cell-based; conditions: incubation concentration 1 μM molecule; for Concentration within platelet pellet: ADP-activated platelet-rich plasma, 20 minutes, pellet washed
Description: For each experiment fresh blood was taken from a volunteer using 10 mL citrate-tubes (Sarstedt S-Monovette 02.1067.001, 10 mL, Citrate 3.13%). The 10 mL citrate-tubes were carefully inverted 10 times to mix blood and anticoagulant. The tubes were stored in an incubator at a temperature of 37° C. until centrifugation (Heraeus miniTherm CTT with integrated rotation- and turning device, turning speed: 19 rotations per minute, Heraeus Instruments GmbH, Hanau/Germany).
For plasma preparation tube centrifugation was carried out for 15 minutes at 1811 g at room temperature (Eppendorf, Centrifuge 5810R). Blood was centrifuged 15 minutes at 201 g at room temperature to produce platelet-rich plasma. The tubes were stored for 30 min at room temperature to get a better separation. The separated platelet-rich plasma was finally centrifuged for further 3 min at 453 g to remove the remaining erythrocytes. The platelet-rich plasma was activated using a final concentration of 5 μM Adenosindiphosphate (ADP, Sigma). The activated platelet-rich plasma was incubated 20 minutes with different concentrations of gadolinium-labeled compound and subsequently was centrifuged 3 minutes at 1360 g. 20 μL of incubation solution was taken to determine the concentration (n=3). […] The gadolinium concentration of supernatant and pellet was determined using an inductively coupled plasma mass spectrometry (ICP-MS Agilent 7500a).
The results for incubation concentration of 1 μM gadolinium-labeled compound are summarized in table 3 (in comparison to Gadovist® standard dose: 100 μmol Gd/kg body weight).

Question: For `CC(C(=O)NCC(=O)NCCCCc1cc(C#Cc2cncc([C@H](CC(=O)O)NC(=O)[C@@H]3CCCN(C(=O)CCC4CCNCC4)C3)c2)cc(CCCCNC(=O)CNC(=O)C(C)N2CCN(CC(=O)O)CCN(CC(=O)O)CCN(CC(=O)O)CC2)c1)N1CCN(CC(=O)O)CCN(CC(=O)O)CCN(CC(=O)O)CC1` (stereo partly drawn) [Example 6, Digadolinium 2,2′,2″,2′″,2″″,2′″″-({5-[(5-{(1S)-2-carboxy-1-[({(3R)-1-[3-(piperidin-4-yl)-propanoyl]piperidin-3-yl}carbonyl)amino]ethyl}pyridin-3-yl)ethynyl]-1,3-phenylene}-bis[butane-4,1-diylimino(2-oxoethane-2,1-diyl)imino(1-oxopropane-1,2-diyl)-1,4,7,10-tetraazacyclododecane-10,1,4,7-tetrayl])hexaacetate], which r1 plasma [1] is on record?
Answer: 10.3 L/mmol/s

Question: What about the r1 water [1] of the same molecule?
Answer: 8.5 L/mmol/s

Question: What about the IC50 [2] of the same molecule?
Answer: 103 nM

Question: And the “Concentration within platelet pellet” value [3]?
Answer: 6.8 ± 0.7 μM Gd

Question: Which r1 plasma [1] does the source give for “Gadolinium 2,2′,2″-{10-[(2S)-1-({2-[(6-(3-[(5-{(1S)-2-carboxy-1-[({(3R)-1-[3-(piperidin-4- yl)propanoyl]piperidin-3-yl}carbonyl)amino]ethyl}pyridin-3-yl)ethynyl]phenyl}butyl)-amino]-2-oxoethyl)amino)-1-oxopropan-2-yl]-1,4,7,10-tetraazacyclododecane-1,4,7-triyl}triacetate [Example 5]” here?
Answer: 9.9 L/mmol/s

Question: And the r1 water [1]?
Answer: 8.0 L/mmol/s

Question: And the IC50 [2]?
Answer: 25 nM

Question: And the “Concentration within platelet pellet” value [3]?
Answer: 3.9 ± 0.4 μM Gd

Question: What about the pellet/supernatant ([3]; ratio of Gd concentration) of the same molecule?
Answer: 123 ± 16 (n = 3)
